In patent US8247211B2, “Glycopeptide antibiotics” (American Cyanamid Company, priority 2001, dated 2012):
Values after ≈ are worked out from the molar mass of the structure shown.

Columns and labels:
Test in all cases: In vitro antibacterial evaluation: minimum inhibitory concentration (MIC), broth dilution method
Format in all cases: cell-based
[1] = system: Streptococcus sp.; conditions: 18 hours at 35° C.
Method in brief: (§1)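 First, organisms are seeded at 5×10^5 CFU/mL into Muller-Hinton II […]. Next, antibiotic is applied across 64-0.06 μg/mL by broth dilution (NCCLS M7-A2). Finally, the lowest inhibitory concentration is recorded as MIC.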

[2] = system: Staphylococcus sp.; conditions: for MIC Staphylococcus aureus (ATCC 29213): strain ATCC 29213; for MIC Staphylococcus aureus (GC 1131): strain GC 1131; for MIC Staphylococcus aureus (GC 3051): strain GC 3051; for MIC Staphylococcus aureus (GC 3053): strain GC 3053; for MIC Staphylococcus aureus (GC 4541): strain GC 4541; for MIC Staphylococcus aureus (GC 4542): strain GC 4542; for MIC Staphylococcus aureus-SMITH (GC 4543): strain GC 4543; for MIC Staphylococcus aureus (GC 4544): strain GC 4544; for MIC Staphylococcus aureus (GC 4545): strain GC 4545; for MIC Staphylococcus haemolyticus (GC 4546): strain GC 4546; for MIC Coagulase Negative Staphylococcus (GC 4547): strain GC 4547; for MIC Coagulase Negative Staphylococcus (GC 4548): strain GC 4548; for MIC Coagulase Negative Staphylococcus (GC 4549): strain GC 4549; for MIC Coagulase Negative Staphylococcus (GC 4551): strain GC 4551
Method in brief: as §1

[3] = system: Enterococcus sp.; conditions: 18 hours at 35° C.
Method in brief: as §1

[4] = system: Escherichia coli; conditions: 18 hours at 35° C.
Method in brief: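 Broth dilution per NCCLS M7-A2 in Muller-Hinton II […], inoculum 5×10^5 CFU/mL, antibiotic tested over 64-0.06 μg/mL. MIC is taken as the lowest concentration that inhibits growth. Panel includes recent clinical isolates resistant to methicillin, penicillin and/or vancomycin.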

[5] = Streptococcus agalactiae (GC 4564)
[6] = Streptococcus pneumoniae (ATCC 6301)
[7] = Streptococcus pneumoniae (GC 1894)
[8] = Streptococcus pneumoniae (GC 4565)
[9] = Streptococcus pyogenes (GC 4563)
[10] = broth dilution, inoculum 5×10^5 CFU/mL
[11] = Enterococcus faecalis (ATCC 29212)
[12] = Enterococcus faecalis (GC 2242)
[13] = Enterococcus faecalis (GC 2691)
[14] = Enterococcus faecalis (GC 3059)
[15] = Enterococcus faecalis (GC 4552)
[16] = Enterococcus faecalis (GC 4553)
[17] = Enterococcus faecalis (GC 4554)
[18] = Enterococcus faecalis (GC 6189)

## CC(c1ccccc1)C1NC(=O)CNC(=O)C(CO)NC(=O)C(C(O)C2CNC(=N)N2C2OC(CO)C(O)C(O)C2O)NC(=O)C(C(O)C2CNC(=N)N2)NC(=O)C(Cc2ccc(OC3OC(CO)C(OC4OC5COC6(CC7CCC6(C)C7(C)C)OC5C(O)C4O)C(O)C3O)cc2)NC1=O (stereo not drawn) [Example 214, Cyclo[glycyl-β-methylphenylalanyl-O-[4-O-[4,6-O-(1,7,7-trimethylbicyclo[2.2.1]hept-2-ylidene)hexopyranosyl]hexopyranosyl]tyrosyl-3-(2-iminoimidazolidin-4-yl)seryl-3-(3-hexopyranosyl-2-iminoimidazolidin-4-yl)serylseryl]]
[1]; [5]
  MIC Streptococcus agalactiae (GC 4564): <0.12 µg/mL
[1]; [6]
  MIC Streptococcus pneumoniae (ATCC 6301): <0.12 µg/mL
[1]; [7]
  MIC Streptococcus pneumoniae (GC 1894): <0.12 µg/mL
[1]; [8]
  MIC Streptococcus pneumoniae (GC 4565): <0.12 µg/mL
[1]; [9]
  MIC Streptococcus pyogenes (GC 4563): <0.12 µg/mL
[1]; [10]
  MIC Streptococcus agalactiae (GC 4564): <0.12 µg/mL
  MIC Streptococcus pneumoniae (ATCC 6301): <0.12 µg/mL
  MIC Streptococcus pneumoniae (GC 1894): <0.12 µg/mL
  MIC Streptococcus pneumoniae (GC 4565): <0.12 µg/mL
  MIC Streptococcus pyogenes (GC 4563): <0.12 µg/mL
[2]
  MIC Staphylococcus aureus (ATCC 29213): 2 µg/mL (≈ 1.4 µM)
  MIC Staphylococcus aureus (GC 1131): 1 µg/mL (≈ 0.7 µM)
  MIC Staphylococcus aureus (GC 3051): 32 µg/mL (≈ 22.4 µM)
  MIC Staphylococcus aureus (GC 3053): 2 µg/mL (≈ 1.4 µM)
  MIC Staphylococcus aureus (GC 4541): 2 µg/mL (≈ 1.4 µM)
  MIC Staphylococcus aureus (GC 4542): 1 µg/mL (≈ 0.7 µM)
  MIC Staphylococcus aureus-SMITH (GC 4543): 0.5 µg/mL (≈ 0.35 µM)
  MIC Staphylococcus aureus (GC 4544): 1 µg/mL (≈ 0.7 µM)
  MIC Staphylococcus aureus (GC 4545): 2 µg/mL (≈ 1.4 µM)
  MIC Staphylococcus haemolyticus (GC 4546): 1 µg/mL (≈ 0.7 µM)
  MIC Coagulase Negative Staphylococcus (GC 4547): 1 µg/mL (≈ 0.7 µM)
  MIC Coagulase Negative Staphylococcus (GC 4548): 1 µg/mL (≈ 0.7 µM)
  MIC Coagulase Negative Staphylococcus (GC 4549): 0.5 µg/mL (≈ 0.35 µM)
  MIC Coagulase Negative Staphylococcus (GC 4551): 1 µg/mL (≈ 0.7 µM)
[3]; Enterococcus avium (GC 4558)
  MIC Enterococcus avium (GC 4558): 2 µg/mL (≈ 1.4 µM)
[3]; [11]
  MIC Enterococcus faecalis (ATCC 29212): 2 µg/mL (≈ 1.4 µM)
[3]; [12]
  MIC Enterococcus faecalis (GC 2242): 2 µg/mL (≈ 1.4 µM)
[3]; [13]
  MIC Enterococcus faecalis (GC 2691): 2 µg/mL (≈ 1.4 µM)
[3]; [14]
  MIC Enterococcus faecalis (GC 3059): 2 µg/mL (≈ 1.4 µM)
[3]; [15]
  MIC Enterococcus faecalis (GC 4552): 2 µg/mL (≈ 1.4 µM)
[3]; [16]
  MIC Enterococcus faecalis (GC 4553): 2 µg/mL (≈ 1.4 µM)
[3]; [17]
  MIC Enterococcus faecalis (GC 4554): 2 µg/mL (≈ 1.4 µM)
[3]; [18]
  MIC Enterococcus faecalis (GC 6189): 2 µg/mL (≈ 1.4 µM)
[3]; Enterococcus faecium (GC 2243)
  MIC Enterococcus faecium (GC 2243): 1 µg/mL (≈ 0.7 µM)
[3]; Enterococcus faecium (GC 4556)
  MIC Enterococcus faecium (GC 4556): 2 µg/mL (≈ 1.4 µM)
[3]; Enterococcus faecium (GC 4557)
  MIC Enterococcus faecium (GC 4557): 2 µg/mL (≈ 1.4 µM)
[3]; [10]
  MIC Enterococcus avium (GC 4558): 2 µg/mL (≈ 1.4 µM)
  MIC Enterococcus faecalis (ATCC 29212): 2 µg/mL (≈ 1.4 µM)
  MIC Enterococcus faecalis (GC 2242): 2 µg/mL (≈ 1.4 µM)
  MIC Enterococcus faecalis (GC 2691): 2 µg/mL (≈ 1.4 µM)
  MIC Enterococcus faecalis (GC 3059): 2 µg/mL (≈ 1.4 µM)
  MIC Enterococcus faecalis (GC 4552): 2 µg/mL (≈ 1.4 µM)
  MIC Enterococcus faecalis (GC 4553): 2 µg/mL (≈ 1.4 µM)
  MIC Enterococcus faecalis (GC 4554): 2 µg/mL (≈ 1.4 µM)
  MIC Enterococcus faecalis (GC 6189): 2 µg/mL (≈ 1.4 µM)
  MIC Enterococcus faecium (GC 2243): 1 µg/mL (≈ 0.7 µM)
  MIC Enterococcus faecium (GC 4556): 2 µg/mL (≈ 1.4 µM)
  MIC Enterococcus faecium (GC 4557): 2 µg/mL (≈ 1.4 µM)
[4]
  MIC Escherichia coli (ATCC 25922): 64 µg/mL (≈ 44.8 µM)
  MIC Escherichia coli (GC 4559): 64 µg/mL (≈ 44.8 µM)
  MIC Escherichia coli (GC 4560): 2 µg/mL (≈ 1.4 µM)

## CC(c1ccccc1)C1NC(=O)CNC(=O)C(CO)NC(=O)C(C(O)C2CNC(=N)N2C2OC(CO)C(O)C(O)C2O)NC(=O)C(C(O)C2CNC(=N)N2)NC(=O)C(Cc2ccc(OC3OC(CO)C(OC4OC5COC6(CC7CCC6(C)C7(C)C)OC5C(O)C4O)C(O)C3O)cc2)NC1=O (stereo not drawn) [Example 215, Cyclo[glycyl-β-methylphenylalanyl-O-[4-O-[4,6-O-(1,7,7-trimethylbicyclo[2.2.1]hept-2-ylidene)hexopyranosyl]hexopyranosyl]tyrosyl-3-(2-iminoimidazolidin-4-yl)seryl-3-(3-hexopyranosyl-2-iminoimidazolidin-4-yl)serylseryl]]
[1]; [5]
  MIC Streptococcus agalactiae (GC 4564): <0.12 µg/mL
[1]; [6]
  MIC Streptococcus pneumoniae (ATCC 6301): <0.12 µg/mL
[1]; [7]
  MIC Streptococcus pneumoniae (GC 1894): <0.12 µg/mL
[1]; [8]
  MIC Streptococcus pneumoniae (GC 4565): <0.12 µg/mL
[1]; [9]
  MIC Streptococcus pyogenes (GC 4563): <0.12 µg/mL
[1]; [10]
  MIC Streptococcus agalactiae (GC 4564): <0.12 µg/mL
  MIC Streptococcus pneumoniae (ATCC 6301): <0.12 µg/mL
  MIC Streptococcus pneumoniae (GC 1894): <0.12 µg/mL
  MIC Streptococcus pneumoniae (GC 4565): <0.12 µg/mL
  MIC Streptococcus pyogenes (GC 4563): <0.12 µg/mL
[2]
  MIC Staphylococcus aureus (ATCC 29213): 0.5 µg/mL (≈ 0.35 µM)
  MIC Staphylococcus aureus (GC 1131): 0.5 µg/mL (≈ 0.35 µM)
  MIC Staphylococcus aureus (GC 3051): 0.5 µg/mL (≈ 0.35 µM)
  MIC Staphylococcus aureus (GC 3053): 1 µg/mL (≈ 0.7 µM)
  MIC Staphylococcus aureus (GC 4541): 0.5 µg/mL (≈ 0.35 µM)
  MIC Staphylococcus aureus (GC 4542): 0.5 µg/mL (≈ 0.35 µM)
  MIC Staphylococcus aureus-SMITH (GC 4543): <0.12 µg/mL
  MIC Staphylococcus aureus (GC 4544): 0.5 µg/mL (≈ 0.35 µM)
  MIC Staphylococcus aureus (GC 4545): 1 µg/mL (≈ 0.7 µM)
  MIC Staphylococcus haemolyticus (GC 4546): 0.5 µg/mL (≈ 0.35 µM)
  MIC Coagulase Negative Staphylococcus (GC 4547): 0.5 µg/mL (≈ 0.35 µM)
  MIC Coagulase Negative Staphylococcus (GC 4548): 0.5 µg/mL (≈ 0.35 µM)
  MIC Coagulase Negative Staphylococcus (GC 4549): <0.12 µg/mL
  MIC Coagulase Negative Staphylococcus (GC 4551): 0.5 µg/mL (≈ 0.35 µM)
[3]; Enterococcus avium (GC 4558)
  MIC Enterococcus avium (GC 4558): 0.5 µg/mL (≈ 0.35 µM)
[3]; [11]
  MIC Enterococcus faecalis (ATCC 29212): 0.5 µg/mL (≈ 0.35 µM)
[3]; [12]
  MIC Enterococcus faecalis (GC 2242): 1 µg/mL (≈ 0.7 µM)
[3]; [13]
  MIC Enterococcus faecalis (GC 2691): 1 µg/mL (≈ 0.7 µM)
[3]; [14]
  MIC Enterococcus faecalis (GC 3059): 1 µg/mL (≈ 0.7 µM)
[3]; [15]
  MIC Enterococcus faecalis (GC 4552): 1 µg/mL (≈ 0.7 µM)
[3]; [16]
  MIC Enterococcus faecalis (GC 4553): 0.5 µg/mL (≈ 0.35 µM)
[3]; [17]
  MIC Enterococcus faecalis (GC 4554): 1 µg/mL (≈ 0.7 µM)
[3]; [18]
  MIC Enterococcus faecalis (GC 6189): 1 µg/mL (≈ 0.7 µM)
[3]; Enterococcus faecium (GC 2243)
  MIC Enterococcus faecium (GC 2243): 0.5 µg/mL (≈ 0.35 µM)
[3]; Enterococcus faecium (GC 4556)
  MIC Enterococcus faecium (GC 4556): 1 µg/mL (≈ 0.7 µM)
[3]; Enterococcus faecium (GC 4557)
  MIC Enterococcus faecium (GC 4557): 0.5 µg/mL (≈ 0.35 µM)
[3]; [10]
  MIC Enterococcus avium (GC 4558): 0.5 µg/mL (≈ 0.35 µM)
  MIC Enterococcus faecalis (ATCC 29212): 0.5 µg/mL (≈ 0.35 µM)
  MIC Enterococcus faecalis (GC 2242): 1 µg/mL (≈ 0.7 µM)
  MIC Enterococcus faecalis (GC 2691): 1 µg/mL (≈ 0.7 µM)
  MIC Enterococcus faecalis (GC 3059): 1 µg/mL (≈ 0.7 µM)
  MIC Enterococcus faecalis (GC 4552): 1 µg/mL (≈ 0.7 µM)
  MIC Enterococcus faecalis (GC 4553): 0.5 µg/mL (≈ 0.35 µM)
  MIC Enterococcus faecalis (GC 4554): 1 µg/mL (≈ 0.7 µM)
  MIC Enterococcus faecalis (GC 6189): 1 µg/mL (≈ 0.7 µM)
  MIC Enterococcus faecium (GC 2243): 0.5 µg/mL (≈ 0.35 µM)
  MIC Enterococcus faecium (GC 4556): 1 µg/mL (≈ 0.7 µM)
  MIC Enterococcus faecium (GC 4557): 0.5 µg/mL (≈ 0.35 µM)
[4]
  MIC Escherichia coli (ATCC 25922): 32 µg/mL (≈ 22.4 µM)
  MIC Escherichia coli (GC 4559): 32 µg/mL (≈ 22.4 µM)
  MIC Escherichia coli (GC 4560): 1 µg/mL (≈ 0.7 µM)
